Experimental data taken from PMC4664181 (ChemMedChem, 2009).
“Also recorded” adds a separate entry of the source. Where two headings read alike, the source gives them in different places.

Assays:
[1] = biological target: native NMDA receptors; experiment: Radioligand binding assay; details: rat brain synaptosomes; for [3H]CGP39653 mean pKi ± SEM: three to five experiments; for Ki: read-out: [3H]CGP39653 Ki, mean of three to five experiments
[2] = biological target: T1, NR1/NR2A (Rattus norvegicus, UniProt Q00959); format: cell-based; details: for EC50: NR = no response up to 1000 μM
T1 sequence (Q00959 23-1464, other chains not shown): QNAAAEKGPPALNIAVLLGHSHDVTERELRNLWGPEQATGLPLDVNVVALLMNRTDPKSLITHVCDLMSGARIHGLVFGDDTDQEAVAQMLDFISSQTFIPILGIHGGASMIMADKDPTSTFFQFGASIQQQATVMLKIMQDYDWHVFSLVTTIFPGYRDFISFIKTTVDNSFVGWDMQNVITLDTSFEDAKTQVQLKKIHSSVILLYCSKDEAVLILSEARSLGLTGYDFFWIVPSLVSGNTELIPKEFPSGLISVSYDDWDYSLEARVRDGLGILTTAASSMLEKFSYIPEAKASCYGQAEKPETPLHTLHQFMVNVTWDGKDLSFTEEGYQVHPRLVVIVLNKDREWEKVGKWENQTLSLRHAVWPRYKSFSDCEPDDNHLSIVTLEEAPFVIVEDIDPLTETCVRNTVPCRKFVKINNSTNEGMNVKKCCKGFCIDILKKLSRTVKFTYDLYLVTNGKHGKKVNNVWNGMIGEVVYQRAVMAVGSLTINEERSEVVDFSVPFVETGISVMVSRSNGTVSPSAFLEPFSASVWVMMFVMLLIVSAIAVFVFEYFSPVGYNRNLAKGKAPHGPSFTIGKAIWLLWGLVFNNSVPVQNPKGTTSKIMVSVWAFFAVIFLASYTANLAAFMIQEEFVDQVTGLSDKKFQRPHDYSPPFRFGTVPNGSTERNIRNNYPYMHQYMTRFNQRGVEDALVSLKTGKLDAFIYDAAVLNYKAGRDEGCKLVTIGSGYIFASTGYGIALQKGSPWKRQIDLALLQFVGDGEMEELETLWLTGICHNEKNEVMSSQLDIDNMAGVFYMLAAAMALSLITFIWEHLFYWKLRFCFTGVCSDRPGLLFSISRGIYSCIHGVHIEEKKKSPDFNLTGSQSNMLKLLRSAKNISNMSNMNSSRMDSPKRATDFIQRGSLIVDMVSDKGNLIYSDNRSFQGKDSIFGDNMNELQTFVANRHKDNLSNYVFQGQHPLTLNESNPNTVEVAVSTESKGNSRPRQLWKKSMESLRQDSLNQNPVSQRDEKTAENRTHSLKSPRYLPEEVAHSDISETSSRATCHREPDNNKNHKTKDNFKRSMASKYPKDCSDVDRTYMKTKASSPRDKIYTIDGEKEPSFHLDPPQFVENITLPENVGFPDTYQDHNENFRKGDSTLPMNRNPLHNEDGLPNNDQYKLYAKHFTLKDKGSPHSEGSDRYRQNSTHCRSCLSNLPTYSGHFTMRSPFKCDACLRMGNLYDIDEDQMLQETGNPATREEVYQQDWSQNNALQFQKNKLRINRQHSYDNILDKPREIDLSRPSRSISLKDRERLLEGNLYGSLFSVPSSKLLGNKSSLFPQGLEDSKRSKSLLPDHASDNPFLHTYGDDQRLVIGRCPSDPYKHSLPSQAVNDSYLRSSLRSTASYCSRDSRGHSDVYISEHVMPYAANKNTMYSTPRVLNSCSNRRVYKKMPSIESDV

[3] = biological target: T2, NR1/NR2B (Rattus norvegicus, UniProt Q00960); format: cell-based; details: NR1/NR2B; for EC50: NR = no response up to 1000 μM
T2 sequence (Q00960 27-1482, other chains not shown): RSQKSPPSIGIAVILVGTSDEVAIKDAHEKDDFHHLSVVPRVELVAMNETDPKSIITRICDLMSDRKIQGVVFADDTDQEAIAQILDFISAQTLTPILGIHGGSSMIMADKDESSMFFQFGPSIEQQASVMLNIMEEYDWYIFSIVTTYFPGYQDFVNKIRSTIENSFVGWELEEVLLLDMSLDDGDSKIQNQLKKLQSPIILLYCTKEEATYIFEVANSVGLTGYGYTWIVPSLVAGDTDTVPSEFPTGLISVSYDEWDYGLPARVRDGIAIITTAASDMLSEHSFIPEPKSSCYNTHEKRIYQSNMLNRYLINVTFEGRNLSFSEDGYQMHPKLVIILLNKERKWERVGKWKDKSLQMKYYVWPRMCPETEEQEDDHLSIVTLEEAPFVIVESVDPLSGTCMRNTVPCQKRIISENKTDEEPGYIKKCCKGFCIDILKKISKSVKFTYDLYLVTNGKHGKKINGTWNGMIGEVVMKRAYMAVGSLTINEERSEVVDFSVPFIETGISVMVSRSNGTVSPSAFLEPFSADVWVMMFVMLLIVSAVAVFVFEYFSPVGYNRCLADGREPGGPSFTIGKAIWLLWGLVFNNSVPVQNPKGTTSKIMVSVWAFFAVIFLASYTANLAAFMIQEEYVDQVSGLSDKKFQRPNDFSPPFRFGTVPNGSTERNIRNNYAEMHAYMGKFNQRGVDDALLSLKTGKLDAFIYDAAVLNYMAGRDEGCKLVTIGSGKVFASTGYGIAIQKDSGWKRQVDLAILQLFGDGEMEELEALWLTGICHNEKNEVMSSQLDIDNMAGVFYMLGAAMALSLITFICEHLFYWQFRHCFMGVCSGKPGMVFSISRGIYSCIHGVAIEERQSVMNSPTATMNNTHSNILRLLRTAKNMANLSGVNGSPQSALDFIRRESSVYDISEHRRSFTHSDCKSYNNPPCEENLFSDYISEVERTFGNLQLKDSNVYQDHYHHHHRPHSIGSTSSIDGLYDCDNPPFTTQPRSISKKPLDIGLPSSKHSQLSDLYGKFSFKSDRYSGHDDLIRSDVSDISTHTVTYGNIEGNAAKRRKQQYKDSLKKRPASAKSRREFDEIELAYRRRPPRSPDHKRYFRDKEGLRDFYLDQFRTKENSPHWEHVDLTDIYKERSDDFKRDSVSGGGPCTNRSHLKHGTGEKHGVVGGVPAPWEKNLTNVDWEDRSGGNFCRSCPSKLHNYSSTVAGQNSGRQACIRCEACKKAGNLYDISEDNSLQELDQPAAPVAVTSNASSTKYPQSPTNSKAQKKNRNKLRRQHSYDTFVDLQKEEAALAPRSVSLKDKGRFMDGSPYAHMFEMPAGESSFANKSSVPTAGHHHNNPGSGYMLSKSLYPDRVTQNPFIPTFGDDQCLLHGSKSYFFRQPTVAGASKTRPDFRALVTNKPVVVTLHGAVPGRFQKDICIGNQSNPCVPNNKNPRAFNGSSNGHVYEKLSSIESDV

[4] = biological target: T3, NR1/NR2C (Rattus norvegicus, UniProt Q00961); format: cell-based; details: NR1/NR2C; for I/Imax (relative maximal response): relative to maximal response to glutamate (1.0)
[5] = biological target: T4, NR1/NR2D (Rattus norvegicus, UniProt Q62645); format: cell-based; details: for Agonist activity (in words) / EC50 / pEC50 (mean ± SEM) / I/Imax (relative maximal response): NR1/NR2D; for I/Imax (relative maximal response): relative to maximal response to glutamate (1.0)
T4 sequence (Q62645 28-1323, other chains not shown): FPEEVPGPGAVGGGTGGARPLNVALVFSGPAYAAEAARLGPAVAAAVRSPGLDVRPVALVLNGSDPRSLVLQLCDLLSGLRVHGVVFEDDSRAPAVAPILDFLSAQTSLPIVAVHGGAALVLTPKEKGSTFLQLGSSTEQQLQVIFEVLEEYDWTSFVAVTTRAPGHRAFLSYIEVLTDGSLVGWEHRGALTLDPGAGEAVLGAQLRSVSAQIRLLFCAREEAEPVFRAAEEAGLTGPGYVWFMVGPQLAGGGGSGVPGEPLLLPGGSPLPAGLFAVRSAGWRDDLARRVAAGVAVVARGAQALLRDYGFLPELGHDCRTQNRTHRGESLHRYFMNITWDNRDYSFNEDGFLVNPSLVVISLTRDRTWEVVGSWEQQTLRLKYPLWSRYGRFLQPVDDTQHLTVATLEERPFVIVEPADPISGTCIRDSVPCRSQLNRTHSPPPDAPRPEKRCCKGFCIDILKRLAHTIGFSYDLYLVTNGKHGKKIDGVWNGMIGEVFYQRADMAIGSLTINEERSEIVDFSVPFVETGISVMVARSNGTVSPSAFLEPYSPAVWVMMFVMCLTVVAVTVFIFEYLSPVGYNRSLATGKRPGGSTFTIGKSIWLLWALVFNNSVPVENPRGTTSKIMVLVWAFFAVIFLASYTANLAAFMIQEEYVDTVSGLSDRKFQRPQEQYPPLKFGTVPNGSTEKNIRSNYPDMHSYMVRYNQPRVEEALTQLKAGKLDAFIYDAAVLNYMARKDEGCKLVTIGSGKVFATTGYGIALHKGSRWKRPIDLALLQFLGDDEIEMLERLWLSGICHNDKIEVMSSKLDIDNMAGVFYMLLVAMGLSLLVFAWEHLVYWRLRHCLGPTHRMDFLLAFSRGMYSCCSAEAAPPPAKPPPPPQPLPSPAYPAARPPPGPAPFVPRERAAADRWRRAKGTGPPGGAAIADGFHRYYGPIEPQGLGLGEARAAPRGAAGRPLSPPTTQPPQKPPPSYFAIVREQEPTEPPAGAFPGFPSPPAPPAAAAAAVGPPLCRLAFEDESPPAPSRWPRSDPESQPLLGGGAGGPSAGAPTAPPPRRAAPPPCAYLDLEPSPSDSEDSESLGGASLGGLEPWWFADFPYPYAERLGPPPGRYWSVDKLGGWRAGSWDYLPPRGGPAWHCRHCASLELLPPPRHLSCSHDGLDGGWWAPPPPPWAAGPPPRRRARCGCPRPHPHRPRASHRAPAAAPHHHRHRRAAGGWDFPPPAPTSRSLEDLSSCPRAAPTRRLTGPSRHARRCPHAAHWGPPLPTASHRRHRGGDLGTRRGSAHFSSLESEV

[6] = biological target: NR1/NR2B (Rattus norvegicus, UniProt P35439+Q00960); format: cell-based
[7] = biological target: NR1/NR2C (Rattus norvegicus, UniProt P35439+Q00961); format: cell-based
[8] = biological target: NR1/NR2D (Rattus norvegicus, UniProt P35439+Q62645); format: cell-based
NR1/NR2D (Rattus norvegicus, UniProt P35439+Q62645), sequence (Q62645 28-1323, other chains not shown): as above

[9] = system: native excitatory amino acid transporters (EAATs); details: cited from earlier work
[10] = biological target: T2, NR1/NR2B; details: cited from earlier work
[11] = biological target: T4, NR1/NR2D; details: cited from earlier work
[12] = biological target: native NMDA receptors; details: read-out: [3H]CGP39653 Ki; rat brain synaptosomes; cited from earlier work
[13] = biological target: T3, NR1/NR2C; details: cited from earlier work
[14] = biological target: T1, NR1/NR2A; details: cited from earlier work
[15] = system: NR2D(Y732F); details: mutant vs wild type NR2D; cited from earlier work
[16] = system: NR2A (Y730 to phenylalanine); details: mutant vs wild type NR2A; cited from earlier work
[17] = relative to maximal response to glutamate (1.0)

For `O=C(O)[C@H]1CN[C@H]1C(=O)O` [D-cis-ADC, (2R,3S)-Azetidine-2,3-dicarboxylic acid], the “[3H]CGP39653 mean pKi ± SEM” value [1] was 4.74 ± 0.13, the Ki [1] was 21 µM and the EC50 [2] was greater than 1000 µM. For the same molecule, the “Agonist activity (in words)” value [3] was “activated”, the EC50 [3] was greater than 3000 µM and the “Agonist activity (in words)” value [4] was “activated; also recorded: partial agonist”. The EC50 [4] was 720 µM, the “pEC50 (mean ± SEM)” value [4] was 3.15±0.06 and the “I/Imax (relative maximal response)” value [4] was 0.47 ± 0.03. The “Agonist activity (in words)” value [5] was “activated; also recorded: partial agonist”, the EC50 [5] was 230 µM and the “pEC50 (mean ± SEM)” value [5] was 3.63±0.01. The “I/Imax (relative maximal response)” value [5] was 0.67 ± 0.01.
For `O=C(O)[C@@H]1CN[C@H]1C(=O)O` [D-trans-ADC, (2R,3R)-Azetidine-2,3-dicarboxylic acid], the “Affinity for glutamate binding site of native NMDA receptors (in words)” value [1] was “essentially without affinity”, the “[3H]CGP39653 mean pKi ± SEM” value [1] was 4.05 ± 0.03 and the Ki [1] was 90 µM. The EC50 [2] was greater than 1000 µM, the “Agonist activity (in words)” value [3] was “activated” and the EC50 [6] was greater than 1000 µM. The “Agonist activity (in words)” value [4] was “activated”, the EC50 [7] was greater than 1000 µM and the EC50 [8] was 660 µM. The “Agonist activity (in words)” value [5] was “activated” and the “I/Imax (relative maximal response)” value [5] was 0.69 ± 0.01.
For `O=C(O)[C@H]1NC[C@H]1C(=O)O` [L-cis-ADC], the “Affinity for glutamate binding site of native NMDA receptors (in words)” value [1] was “essentially without affinity”, the Ki [1] was greater than 100 µM and the “Agonist activity (in words)” value [2] was “unable to activate”. For the same molecule, the EC50 [2] was greater than 1000 µM, the “Agonist activity (in words)” value [3] was “unable to activate” and the EC50 [3] was greater than 1000 µM. For the same molecule, the “Agonist activity (in words)” value [4] was “only at high concentrations (1000 μM) some activation”, the EC50 [4] was greater than 1000 µM and the “Agonist activity (in words)” value [5] was “only at high concentrations (1000 μM) some activation”. For the same molecule, the EC50 [5] was greater than 1000 µM.
In the case of `O=C(O)[C@H]1CN[C@@H]1C(=O)O` [L-trans-ADC], the “[3H]CGP39653 mean pKi ± SEM” value [1] is given as 5.04 ± 0.10, the Ki [1] is given as 10 µM and the “Affinity at native EAATs (in words)” value [9] is given as “affinity in the medium micromolar range”. The “Agonist activity (in words)” value [2] was “able to (partially) activate”, the “pEC50 (mean ± SEM)” value [2] was 3.32±0.03 and the EC50 [2] was 470 µM. The “I/Imax (relative maximal response)” value [2, 17] was 0.38 ± 0.02, the “pEC50 (mean ± SEM)” value [3] was 3.76±0.01 and the EC50 [3] was 170 µM. For the same molecule, the “I/Imax (relative maximal response)” value [3, 17] was 0.48 ± 0.01, the EC50 [4] was 95 µM and the “pEC50 (mean ± SEM)” value [4] was 4.02±0.02. The “I/Imax (relative maximal response)” value [4] was 0.73 ± 0.03, the EC50 [5] was 50 µM and the “pEC50 (mean ± SEM)” value [5] was 4.30±0.02. For the same molecule, the “Preference (agonist potency) for NR1/NR2D over NR1/NR2A” value ([5]; NR1/NR2D vs NR1/NR2A) was 9.4 fold, the “Preference (agonist potency) for NR1/NR2D over NR1/NR2B” value ([5]; NR1/NR2D vs NR1/NR2B) was 3.4 fold and the “Preference (agonist potency) for NR1/NR2D over NR1/NR2C” value ([5]; NR1/NR2D vs NR1/NR2C) was 1.9 fold. For the same molecule, the “I/Imax (relative maximal response)” value [5] was 0.80 ± 0.01.
For `CN[C@H](CC(=O)O)C(=O)O` [NMDA, N-methyl-D-aspartic acid], the EC50 [10] is given as 22 µM, the “pEC50 (mean ± SEM)” value [10] is given as 4.66±0.03 and the “I/Imax (relative maximal response)” value ([10]; relative to glutamate (1.0)) is given as 0.77 ± 0.01. For the same molecule, the EC50 ([11]; NR1/NR2D) was 8.3 µM, the “pEC50 (mean ± SEM)” value ([11]; NR1/NR2D) was 5.08±0.04 and the “I/Imax (relative maximal response)” value ([11]; NR1/NR2D, relative to glutamate (1.0)) was 0.80 ± 0.02. The Ki [12] was 6.2 µM, the EC50 [13] was 23 µM and the “pEC50 (mean ± SEM)” value [13] was 4.63±0.02. The “I/Imax (relative maximal response)” value ([13]; relative to glutamate (1.0)) was 0.73 ± 0.02, the EC50 [14] was 75 µM and the “pEC50 (mean ± SEM)” value [14] was 4.13±0.07. For the same molecule, the “I/Imax (relative maximal response)” value ([14]; relative to glutamate (1.0)) was 0.90 ± 0.04.
For `C[C@H](C[C@H](N)C(=O)O)C(=O)O` [SYM2081, (2S,4R)-4-methylglutamate], the “Higher potency at NR1/NR2D over NR1/NR2A” value ([11]; NR1/NR2D vs NR1/NR2A) is listed as 46 fold.
For `N[C@@H](CCC(=O)O)C(=O)O` [glutamate, (S)-glutamate], the “Change of potency on NR2D(Y732F) (in words)” value [15] is listed as “slightly increased” and the “Decrease of potency by mutation Y730 to phenylalanine in NR2A” value [16] is listed as 45 fold.
